The values that follow come from PMC9574929, “Development of Hydrogen Sulfide-Releasing Carbonic Anhydrases IX- and XII-Selective Inhibitors with Enhanced Antihyperalgesic Action in a Rat Model of Arthritis” (Journal of Medicinal Chemistry, 2022).

For experiment [1], the target named is T1, hCA XII (Homo sapiens, UniProt O43570). Kind of experiment: Stopped-flow CO2 hydrase assay, hCA XII. The conditions noted are these: selectivity index, ratio of KIs.
Protocol: (§3) The uncatalyzed rates were determined in the same manner and subtracted from the total observed rates. Stock solutions of inhibitor (0.1 mM) were prepared in distilled-deionized water and dilutions up to 0.01 nM were done thereafter with the assay buffer. […] The inhibition constants were obtained by nonlinear least-squares methods using PRISM 3 and the Cheng–Prusoff equation, as reported earlier,[39] and represent the mean from at least three different determinations.
The target of experiment [2] is T2, hCA IV (Homo sapiens, UniProt P22748). Kind of experiment: Stopped-flow CO2 hydrase assay, hCA IV. To be noted: selectivity index, ratio of KIs.
T2 sequence (P22748 19-312): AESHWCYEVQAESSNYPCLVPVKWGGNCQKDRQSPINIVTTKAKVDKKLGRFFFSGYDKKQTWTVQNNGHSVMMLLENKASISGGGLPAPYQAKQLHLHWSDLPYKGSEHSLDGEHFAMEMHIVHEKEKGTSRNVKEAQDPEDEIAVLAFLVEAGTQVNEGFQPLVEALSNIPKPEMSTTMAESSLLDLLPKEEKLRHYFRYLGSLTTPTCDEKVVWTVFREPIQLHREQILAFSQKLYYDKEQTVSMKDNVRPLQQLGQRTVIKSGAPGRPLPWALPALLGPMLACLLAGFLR
Protocol: as §3
Experiment [3] concerns the target T3, hCA IX (Homo sapiens, UniProt Q16790). Put plainly: Stopped-flow CO2 hydrase assay, hCA IX. To be noted: selectivity index, ratio of KIs.
Protocol: as §3
Experiment [4] addresses T4, hCA II (Homo sapiens, UniProt P00918). Kind of experiment: Stopped-flow CO2 hydrase assay, hCA II. To be noted: selectivity index, ratio of KIs.
Protocol: as §3
For experiment [5], the target named is T3, hCA IX. On the set-up: made in house; method as in Bonardi et al. [29,30]. To be noted: stopped-flow CO2 hydrase assay; Table S1 footnote b; ref Bonardi et al. [29,30]; cited from earlier work.
Experiment [6] deals with rat model of arthritis induced by the intra-articular injection of complete Freund's adjuvant (CFA). Kind of experiment: Paw pressure test, CFA-induced arthritis. Format: in vivo. Here is the method:
(§1) Articular damage was induced by injection of Complete Freund’s Adjuvant (CFA; Sigma-Aldrich, St Louis, MO, USA), containing 1 mg/mL of heat-killed and dried Mycobacterium tuberculosis in paraffin oil and mannide monooleate, into the tibiotarsal joint.[50] Briefly, the rats were lightly anesthetized with 2% isoflurane, the left leg skin was sterilized with 75% ethyl alcohol, and the lateral malleolus was located by palpation. A 28-gauge needle was then inserted vertically to penetrate the skin and turned distally for insertion into the articular cavity at the gap between the tibiofibular and tarsal bone until a distinct loss of resistance was felt. A volume of 50 μL of CFA was then injected (day 0). Control rats received 50 μL of saline solution (day 0) in the tibiotarsal joint.
(§2) The hybrid derivatives 26, 29, 30, and 31 (1, 10, and 30 mg/kg) were suspended in a 1% solution of carboxymethylcellulose (CMC) sodium salt and acutely per os administered starting from day 14 after CFA i.a. injection, when arthritis was well established. The H2S releaser 3 and CAI 15 were also administered alone or in coadministration at the equimolar dose of compound 30 30 mg/kg (13.23 and 17.71 mg/kg, respectively). The antihypersensitivity effects were evaluated over time by the Paw pressure and Incapacitance tests.
The nociceptive threshold of rats was determined with an analgesimeter (Ugo Basile, Varese, Italy), according to the method described by Leighton et al.[51] and Maresca et al.,[52] (doi: 10.1111/jphp.12828). Briefly, a constantly increasing pressure was applied to a small area of the dorsal surface of the hind paw using a blunt conical probe by a mechanical device. Mechanical pressure was increased until vocalization or a withdrawal reflex occurred while rats were lightly restrained. Vocalization or withdrawal reflex thresholds were expressed in grams. […]

Experiment [7] can be described thus: Spectrophotometric methylene blue H2S release assay in rat liver homogenate. The conditions noted are these: compound 150 μM, 37 °C. The method, then: The released H2S, trapped by zinc acetate to form zinc sulfide, reacts with N,N-dimethyl-1,4-phenylenediamine in the presence of iron(III) to yield methylene blue, which can be easily quantified by measuring absorbance at 667 nm (MB^+ form) or at 748 nm (MBH^2+).[42],[43] The compound H2S release in different conditions was monitored over time and quantified according to a calibration curve with Na2S (1–300 μM). Incubation of compound 3 and the hybrid derivatives in phosphate buffer at 37 °C either in the presence or absence of thiol compounds (cysteine or glutathione) produced no or a barely detectable H2S release, respectively. […]
Rat liver was homogenized in ice-cold 50 mM potassium phosphate buffer (pH 7.4).[41] Optimal w/v ratios of 1/20 were determined from preliminary experiments (data not shown). […] The released H2S concentration was measured as described previously.[45] […] Baseline H2S concentration was determined in incubates upon addition of trichloroacetic acid directly to the tissue homogenate in absence of the compound. Thus, N,N-dimethyl-p-phenylenediamine sulfate in HCl 5 M (20 mM; 200 μL) and FeCl3 in HCl 1.2 M (30 mM; 200 μL) were added to the mixture, and the absorbance of the formed methylene blue was measured after 30 min at 25 °C at 667 nm using a Varian Cary 300 UV–Visible spectrophotometer. […]

Experiment [8] has as its system rat model of arthritis induced by the intra-articular injection of complete Freund's adjuvant (CFA). Kind of experiment: Incapacitance test, CFA-induced arthritis. Format: in vivo. Here is the method:
as §1, §2
Weight-bearing changes were measured using an incapacitance apparatus (Linton Instrumentation, Norfolk, U.K.) to detect changes in postural equilibrium after a hind limb injury.[53],[54] Rats were trained to stand on their hind paws in a box with an inclined plane (65° from horizontal). This box was placed above the incapacitance apparatus. This allowed us to independently measure the weight that the animal applied on each hind limb. The value reported for each animal is the mean of five consecutive measurements. In the absence of hind limb injury, rats applied an equal weight on both hind limbs, indicating postural equilibrium, whereas an unequal distribution of weight on the hind limbs indicated a monolateral decreased pain threshold. Data are expressed as the difference between the weight applied to the limb contralateral to the injury and the weight applied to the ipsilateral limb (Δ weight).

The target in another experiment is hCA I (Homo sapiens, UniProt P00915). On the set-up: made in house; method as in Bonardi et al. [29,30]. The conditions noted are these: stopped-flow CO2 hydrase assay; Table S1 footnote b; ref Bonardi et al. [29,30]; cited from earlier work.
Sequence of hCA I (P00915 whole entry): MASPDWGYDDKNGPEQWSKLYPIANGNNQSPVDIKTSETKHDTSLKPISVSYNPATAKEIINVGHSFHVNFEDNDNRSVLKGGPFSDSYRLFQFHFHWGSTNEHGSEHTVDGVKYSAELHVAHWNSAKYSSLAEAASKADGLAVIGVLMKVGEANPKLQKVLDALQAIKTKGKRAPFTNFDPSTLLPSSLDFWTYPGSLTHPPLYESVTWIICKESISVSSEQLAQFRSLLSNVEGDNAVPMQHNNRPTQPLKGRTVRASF
Experiment [9] has as its target T2, hCA IV. Further details: made in house; method as in Bonardi et al. [29,30]. To be noted: stopped-flow CO2 hydrase assay; Table S1 footnote b; ref Bonardi et al. [29,30]; cited from earlier work.
In experiment [10] the target is T4, hCA II. Further details: made in house; method as in Bonardi et al. [29,30]. The conditions noted are these: stopped-flow CO2 hydrase assay; Table S1 footnote b; ref Bonardi et al. [29,30]; cited from earlier work.
Experiment [11] has as its target T1, hCA XII. Further details: made in house; method as in Bonardi et al. [29,30]. The conditions noted are these: stopped-flow CO2 hydrase assay; Table S1 footnote b; ref Bonardi et al. [29,30]; cited from earlier work.
[12] abbreviates: per os, 3 13.23 mg/kg, 15 17.71 mg/kg.

T1 sequence (O43570 25-354): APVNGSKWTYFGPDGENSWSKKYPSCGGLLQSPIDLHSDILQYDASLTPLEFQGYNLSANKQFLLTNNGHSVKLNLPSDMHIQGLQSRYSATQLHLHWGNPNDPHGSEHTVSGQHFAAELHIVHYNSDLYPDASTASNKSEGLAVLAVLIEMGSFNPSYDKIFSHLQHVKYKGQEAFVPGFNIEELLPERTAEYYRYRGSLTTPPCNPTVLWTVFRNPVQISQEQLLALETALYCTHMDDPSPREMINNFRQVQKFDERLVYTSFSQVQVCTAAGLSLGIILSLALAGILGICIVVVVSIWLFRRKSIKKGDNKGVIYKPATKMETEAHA

For the compound `NS(=O)(=O)c1ccc(CCNCc2ccc(F)cc2)cc1` [Compound 5, 4-(2-((4-Fluorobenzyl)amino)ethyl)benzenesulfonamide], on hCA XII [1], the “SI CA I/XII” value came out at 1.9 and the “SI CA II/XII” value came out at 1.3. Besides, on hCA IV [2], the “SI CA I/IV” value stood at 0.09 and the “SI CA II/IV” value was determined as 0.06. For the same compound, on hCA IX [3], the “SI CA I/IX” value stood at 2.0 and the “SI CA II/IX” value stood at 1.4. Further, at hCA II [4], the “SI CA I/II” value is listed as 1.4. Also, at hCA IX [5], the Ki (as a rule, the dissociation constant of the complex between target and ligand, obtained from inhibition or displacement) was 56.5 nM.

Take `O=C(O)c1ccc(-c2cssc2=S)cc1` [Compound 3, 4-(3-Thioxo-3H-1,2-dithiol-4-yl)benzoic Acid]: the “time of peak antihyperalgesic effect, Paw pressure test” value in experiment [6] (after per os administration) was found to be 15 min. The “antihyperalgesic effect, Paw pressure test, dose equimolar to 30 30 mg/kg” value in [6] (setting [12]) is “rapid antihyperalgesic effect that peaked at 15 min and totally disappeared after 45 min”. Moreover, the “time at which H2S release peaked / reached a plateau” value in experiment [7] is reported as approximately 20 min. In addition, the “time of peak of efficacy, Incapacitance test” value in experiment [8] (after per os treatment) was found to be 15 min. For the same compound, in [8] (setting [12]), the “antihyperalgesic effect, Incapacitance test, dose equimolar to 30 30 mg/kg” value is given as “comparable to that of the hybrid analogue 30 at its optimal dose”.

With `NS(=O)(=O)c1ccc(CCNCc2ccc([N+](=O)[O-])cc2)cc1` [Compound 10, 4-(2-((4-Nitrobenzyl)amino)ethyl)benzenesulfonamide], on hCA XII [1], the “SI CA I/XII” value worked out at 2.9 and the “SI CA II/XII” value is 1.6. Further, on hCA IV [2], the “SI CA I/IV” value is reported as 0.1 and the “SI CA II/IV” value is 0.07. At hCA IX [3], the “SI CA I/IX” value amounted to 2.5 and the “SI CA II/IX” value amounted to 1.4. Further, the “SI CA I/II” value at hCA II [4] amounted to 1.9. In addition, the inhibition constant Ki on hCA IX [5] is 89.2 nM.

For the compound `N#CCCNCCc1ccc(S(N)(=O)=O)cc1` [Compound 18, 4-(2-((2-Cyanoethyl)amino)ethyl)benzenesulfonamide], the Ki was 105 nM at hCA I; 5550 nM on hCA IV [9]; 154 nM at hCA II [10]; 113 nM at hCA XII [11]; 105 nM at hCA IX [5]. Moreover, on hCA XII [1], the “SI CA I/XII” value came out at 0.9. For the same compound, the “SI CA II/XII” value on hCA XII [1] was found to be 1.4. Besides, at hCA IV [2], the “SI CA I/IV” value came out at 0.01. At hCA IV [2], the “SI CA II/IV” value turned out to be 0.02. Also, the “SI CA I/IX” value at hCA IX [3] is 1.0. Also, the “SI CA II/IX” value on hCA IX [3] amounted to 1.5. Also, the “SI CA I/II” value on hCA II [4] is listed as 0.7.
